{"source": "patent US4851211A", "about": "“LHRH analog formulations” (Abbott Laboratories, priority 1986, dated 1989)", "key": {"[1]": {"conditions": "no counterion"}, "[2]": {"conditions": "ionizable site of leuprolide; cited from earlier work"}, "[3]": {"experiment": "Bioabsorption testing: leuprolide levels after inhalation of solution aerosol (radioimmunoassay)", "conditions": "aerosol compared with comparable intravenous dose", "procedure": "Healthy male beagle dogs (9-18 months old) were provided with free access to food during entire study. There were three dogs of each sex in each treatment group. Body weight, food consumption and other pertinent clinical signs were monitored at a regular basis during the study. […] Drug administration was carried out through 2 weeks. Leuprolide plasma concentrations was determined during day 1 of the study in order to evaluate bioabsorption of leuprolide from the aerosol. Blood samples of approximately 2-3 ml were obtained from the jugular vein and allowed to clot. After centrifugation, the serum fraction was removed and assayed for leuprolide using a radioimmunoassay technique. Relative absorption of leuprolide via the inhalation route of administration was estimated using mean historical data from representative intravenously administered formulations."}}, "data": [{"smiles": "CCNC(=O)[C@@H]1CCCN1C(=O)[C@H](CCCNC(=N)N)NC(=O)[C@H](CC(C)C)NC(=O)[C@@H](CC(C)C)NC(=O)[C@H](Cc1ccc(O)cc1)NC(=O)[C@H](CO)NC(=O)[C@H](Cc1c[nH]c2ccccc12)NC(=O)[C@H](Cc1c[nH]cn1)NC(=O)[C@@H]1CCC(=O)N1", "note": "[leuprolide, 5-Oxo-L-prolyl-L-histidyl-L-tryptophanyl-L-seryl-L-tyrosyl-D-leucyl-L-leucyl-L-arginyl-L-prolylethylamide acetate]", "values": [{"measurement": "solubility of leuprolide", "setting": "[1]; mixtures of ethyl alcohol and fluorocarbons", "result": "~3000", "unit": "µg/mL"}, {"measurement": "equilibrium solubility of leuprolide", "setting": "[1]; mixtures of fluorocarbons, ethyl alcohol and water", "result": "~5000", "unit": "µg/mL"}, {"measurement": "pKa, guanidine nitrogen of arginine", "setting": "[2]", "result": "approximately 13.0"}, {"measurement": "pKa, imidazolyl nitrogen of histidine", "setting": "[2]", "result": "approximately 6.0"}, {"measurement": "pKa, phenolic hydroxyl of tyrosine", "setting": "[2]", "result": "approximately 10.0"}, {"measurement": "plasma peak concentration", "setting": "[3]", "result": "approximately equals that of a comparable dose administered intravenously"}]}]}
